According to ChEMBL document CHEMBL1201862, “PubChem BioAssay data set” (2004):
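Following 48 hours of exposure in 96-well plates, responses at five concentrations were used to interpolate endpoints linearly. GI50 is the concentration that inhibits growth by half.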 The source made the active and inactive calls. No stated cut-off is given here; in the data, active = GI50 up to about 1.1 µM and inactive = higher.

How the values were obtained:
Assay in all cases: growth of human tumour cells (NCI), 48 h
SN12C = tested on: SN12C
SK-MEL-2 = tested on: SK-MEL-2
HCC 2998 = tested on: HCC 2998
HCT-15 = tested on: HCT-15
DMS-273 = tested on: DMS-273
HOP-62 = tested on: HOP-62
OVCAR-3 = tested on: OVCAR-3
UO-31 = tested on: UO-31
U-251 = tested on: U-251
KM-20L2 = tested on: KM-20L2
CAKI-1 = tested on: CAKI-1
EKVX = tested on: EKVX
IGROV-1 = tested on: IGROV-1
LXFL 529 = tested on: LXFL 529
CCRF-CEM = tested on: CCRF-CEM
SF-539 = tested on: SF-539
LOX IMVI = tested on: LOX IMVI
OVCAR-4 = tested on: OVCAR-4
M19-MEL = tested on: M19-MEL
Malme-3M = tested on: Malme-3M
HL-60 = tested on: HL-60
UACC-257 = tested on: UACC-257
SF-295 = tested on: SF-295
K562 = tested on: K562
NCI-H460 = tested on: NCI-H460
DLD-1 = tested on: DLD-1
TK-10 = tested on: TK-10
A498 = tested on: A498
UACC-62 = tested on: UACC-62
RXF 393 = tested on: RXF 393
SR = tested on: SR
RPMI-8226 = tested on: RPMI-8226
MOLT-4 = tested on: MOLT-4
ACHN = tested on: ACHN
A549 = tested on: A549
M14 = tested on: M14
786-0 = tested on: 786-0
HT-29 = tested on: HT-29
SW-620 = tested on: SW-620
SNB-75 = tested on: SNB-75
HCT-116 = tested on: HCT-116
KM12 = tested on: KM12
OVCAR-8 = tested on: OVCAR-8
COLO 205 = tested on: COLO 205
XF498 = tested on: XF498
SK-MEL-5 = tested on: SK-MEL-5
SNB-19 = tested on: SNB-19
NCI-H226 = tested on: NCI-H226
NCI-H23 = tested on: NCI-H23
SK-OV-3 = tested on: SK-OV-3
NCI-H522 = tested on: NCI-H522
SK-MEL-28 = tested on: SK-MEL-28
SNB-78 = tested on: SNB-78
DMS-114 = tested on: DMS-114
SF-268 = tested on: SF-268
OVCAR-5 = tested on: OVCAR-5

## NC(=O)N/N=C(\CC1OC(=O)c2ccccc21)c1ccc([N+](=O)[O-])cc1 (configuration not stated)
SN12C
  GI50: 31 µM (inactive)
SK-MEL-2
  GI50: 19.4 µM (inactive)
HCC 2998
  GI50: 18 µM (inactive)
HCT-15
  GI50: 24.5 µM
DMS-273
  GI50: 28.1 µM (inactive)
HOP-62
  GI50: 22.7 µM (inactive)
OVCAR-3
  GI50: 49.1 µM (inactive)
UO-31
  GI50: 76.6 µM (inactive)
U-251
  GI50: 17.5 µM (inactive)
KM-20L2
  GI50: 29.2 µM (inactive)
CAKI-1
  GI50: 23.6 µM (inactive)
EKVX
  GI50: 33.8 µM (inactive)
IGROV-1
  GI50: 23.7 µM (inactive)
LXFL 529
  GI50: 27.9 µM (inactive)
CCRF-CEM
  GI50: 31.3 µM (inactive)
SF-539
  GI50: 21.5 µM (inactive)
LOX IMVI
  GI50: 17 µM (inactive)
OVCAR-4
  GI50: 39.5 µM (inactive)
M19-MEL
  GI50: 26.5 µM (inactive)
Malme-3M
  GI50: 25.3 µM (inactive)
HL-60
  GI50: 26.3 µM (inactive)
UACC-257
  GI50: 67.3 µM (inactive)
SF-295
  GI50: 68.4 µM (inactive)
K562
  GI50: > 10 µM (inactive)
NCI-H460
  GI50: 39.9 µM (inactive)
DLD-1
  GI50: 22.4 µM (inactive)
TK-10
  GI50: > 100 µM (inactive)
A498
  GI50: 82 µM (inactive)
UACC-62
  GI50: 18.4 µM (inactive)
RXF 393
  GI50: 14.9 µM (inactive)
SR
  GI50: 32.7 µM (inactive)
RPMI-8226
  GI50: 31.3 µM (inactive)
MOLT-4
  GI50: 27.7 µM (inactive)
ACHN
  GI50: 62.1 µM (inactive)
A549
  GI50: 38.7 µM (inactive)
M14
  GI50: 34 µM (inactive)
786-0
  GI50: 17.6 µM (inactive)
HT-29
  GI50: 40.6 µM (inactive)
SW-620
  GI50: 35.7 µM (inactive)
SNB-75
  GI50: 27.1 µM (inactive)
HCT-116
  GI50: 28.7 µM (inactive)
KM12
  GI50: 32.5 µM (inactive)
OVCAR-8
  GI50: > 10 µM (inactive)
COLO 205
  GI50: 46.8 µM (inactive)
XF498
  GI50: 26.9 µM (inactive)
SK-MEL-5
  GI50: 23.1 µM (inactive)
SNB-19
  GI50: 20.7 µM (inactive)

## NC1CCCCC1.O=P(O)(O)C1(P(=O)(O)O)CC1
NCI-H226
  GI50: > 100 µM (inactive)
SN12C
  GI50: > 100 µM (inactive)
SK-MEL-2
  GI50: > 100 µM (inactive)
HCC 2998
  GI50: > 100 µM (inactive)
NCI-H23
  GI50: > 100 µM (inactive)
SK-OV-3
  GI50: > 100 µM (inactive)
HCT-15
  GI50: > 100 µM
DMS-273
  GI50: > 100 µM (inactive)
HOP-62
  GI50: > 100 µM (inactive)
OVCAR-3
  GI50: > 100 µM (inactive)
NCI-H522
  GI50: > 100 µM (inactive)
SK-MEL-28
  GI50: > 100 µM (inactive)
UO-31
  GI50: > 100 µM (inactive)
U-251
  GI50: > 100 µM (inactive)
KM-20L2
  GI50: > 100 µM (inactive)
CAKI-1
  GI50: > 100 µM (inactive)
EKVX
  GI50: > 100 µM (inactive)
IGROV-1
  GI50: > 100 µM (inactive)
LXFL 529
  GI50: > 100 µM (inactive)
CCRF-CEM
  GI50: > 100 µM (inactive)
SF-539
  GI50: > 100 µM (inactive)
LOX IMVI
  GI50: > 100 µM (inactive)
OVCAR-4
  GI50: > 100 µM (inactive)
SNB-78
  GI50: > 100 µM (inactive)
M19-MEL
  GI50: > 100 µM (inactive)
Malme-3M
  GI50: > 100 µM (inactive)
UACC-257
  GI50: > 100 µM (inactive)
SF-295
  GI50: > 100 µM (inactive)
K562
  GI50: > 100 µM (inactive)
NCI-H460
  GI50: > 100 µM (inactive)
TK-10
  GI50: > 100 µM (inactive)
A498
  GI50: > 100 µM (inactive)
UACC-62
  GI50: > 100 µM (inactive)
RXF 393
  GI50: > 100 µM (inactive)
RPMI-8226
  GI50: > 100 µM (inactive)
MOLT-4
  GI50: > 100 µM (inactive)
DMS-114
  GI50: > 100 µM (inactive)
ACHN
  GI50: > 100 µM (inactive)
SF-268
  GI50: > 100 µM (inactive)
A549
  GI50: > 100 µM (inactive)
M14
  GI50: > 100 µM (inactive)
786-0
  GI50: > 100 µM (inactive)
HT-29
  GI50: > 100 µM (inactive)
SW-620
  GI50: > 100 µM (inactive)
SNB-75
  GI50: > 100 µM (inactive)
HCT-116
  GI50: > 100 µM (inactive)
KM12
  GI50: > 100 µM (inactive)
OVCAR-8
  GI50: > 100 µM (inactive)
COLO 205
  GI50: > 100 µM (inactive)
OVCAR-5
  GI50: > 100 µM (inactive)
XF498
  GI50: > 100 µM (inactive)
SK-MEL-5
  GI50: > 100 µM (inactive)
SNB-19
  GI50: > 100 µM (inactive)

## COc1cc2cnc3c4ccccc4ccc3c2cc1OC
SN12C
  GI50: > 100 µM (inactive)
SK-MEL-2
  GI50: > 100 µM (inactive)
HCC 2998
  GI50: > 100 µM (inactive)
NCI-H23
  GI50: > 100 µM (inactive)
SK-OV-3
  GI50: > 100 µM (inactive)
HOP-62
  GI50: > 100 µM (inactive)
OVCAR-3
  GI50: > 100 µM (inactive)
NCI-H522
  GI50: > 100 µM (inactive)
SK-MEL-28
  GI50: > 100 µM (inactive)
UO-31
  GI50: > 100 µM (inactive)
U-251
  GI50: > 100 µM (inactive)
KM-20L2
  GI50: > 100 µM (inactive)
CAKI-1
  GI50: > 100 µM (inactive)
EKVX
  GI50: 6.73 µM (inactive)
IGROV-1
  GI50: > 100 µM (inactive)
LXFL 529
  GI50: > 100 µM (inactive)
CCRF-CEM
  GI50: > 100 µM (inactive)
OVCAR-4
  GI50: > 100 µM (inactive)
SNB-78
  GI50: > 100 µM (inactive)
M19-MEL
  GI50: > 100 µM (inactive)
Malme-3M
  GI50: > 100 µM (inactive)
UACC-257
  GI50: > 100 µM (inactive)
SF-295
  GI50: > 100 µM (inactive)
K562
  GI50: > 100 µM (inactive)
NCI-H460
  GI50: > 100 µM (inactive)
DLD-1
  GI50: > 100 µM (inactive)
TK-10
  GI50: > 100 µM (inactive)
A498
  GI50: > 100 µM (inactive)
UACC-62
  GI50: > 100 µM (inactive)
RPMI-8226
  GI50: > 100 µM (inactive)
MOLT-4
  GI50: > 100 µM (inactive)
DMS-114
  GI50: > 100 µM (inactive)
ACHN
  GI50: > 100 µM (inactive)
SF-268
  GI50: > 100 µM (inactive)
A549
  GI50: > 100 µM (inactive)
M14
  GI50: > 100 µM (inactive)
786-0
  GI50: > 100 µM (inactive)
HT-29
  GI50: > 100 µM (inactive)
SW-620
  GI50: > 100 µM (inactive)
SNB-75
  GI50: > 100 µM (inactive)
KM12
  GI50: > 100 µM (inactive)
OVCAR-8
  GI50: > 100 µM (inactive)
COLO 205
  GI50: > 100 µM (inactive)
OVCAR-5
  GI50: > 100 µM (inactive)
XF498
  GI50: > 100 µM (inactive)
SK-MEL-5
  GI50: > 100 µM (inactive)
SNB-19
  GI50: > 100 µM (inactive)
